Legend:
A2BAR [1] = molecular target: T1, A2BAR (Homo sapiens, UniProt P29275); assay: cAMP accumulation assay in naive HEK293 cells; format: cell-based; conditions: naive HEK293 cells, inhibitor 30 nM, PMA 1 μM, BAY 10 μM
T1 sequence (P29275 1-332): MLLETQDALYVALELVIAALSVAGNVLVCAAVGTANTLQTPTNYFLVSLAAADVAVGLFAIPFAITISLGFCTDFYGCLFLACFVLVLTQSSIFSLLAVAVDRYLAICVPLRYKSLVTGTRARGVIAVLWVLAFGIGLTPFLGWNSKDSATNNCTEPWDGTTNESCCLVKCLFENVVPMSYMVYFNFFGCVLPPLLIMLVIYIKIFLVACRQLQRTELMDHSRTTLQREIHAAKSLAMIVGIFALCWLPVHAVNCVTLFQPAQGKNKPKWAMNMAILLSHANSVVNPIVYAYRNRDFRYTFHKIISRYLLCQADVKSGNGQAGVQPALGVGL

PKCβ = conditions: reported selectivity profile, ref not given; cited from earlier work
PKCγ = conditions: reported selectivity profile, ref not given; cited from earlier work
A2BAR [2] = molecular target: T1, A2BAR; assay: cAMP accumulation assay in HEK293-A2B cells; format: cell-based; conditions: HEK293-A2B cells
PKCβI = conditions: reported selectivity profile, ref not given; cited from earlier work
PKCβ2 = conditions: reported selectivity profile, ref not given; cited from earlier work

| effect on PKC-induced A2BAR activation (cAMP) (A2BAR [2]; inhibitor 30 nM) | effect on PKC-induced A2BAR activation (cAMP) (A2BAR [2]; inhibitor 1 μM) | SMILES | effect on PKC (PMA)-induced enhancement of BAY-induced cAMP accumulation (A2BAR [1]) | IC50 (PKCβ) | IC50 (PKCγ) | IC50 (PKCβI) | IC50 (PKCβ2) |
| --- | --- | --- | --- | --- | --- | --- | --- |
| – | – | Cn1cc(C2=C(c3cn(C4CCN(Cc5ccccn5)CC4)c4ccccc34)C(=O)NC2=O)c2ccccc21 [enzastaurin] | did not inhibit PMA-induced enhancement | […] | […] | – | – |
| lack of inhibition | significant inhibition | CN(C)C[C@@H]1CCn2cc(c3ccccc32)C2=C(C(=O)NC2=O)c2cn(c3ccccc23)CCO1 [LY333531] | did not inhibit PMA-induced enhancement | – | […] | […] | […] |
